According to patent US20190029252A1, “Use of Herbicide-tolerant Protein” (BEIJING DABEINONG TECHNOLOGY GROUP CO., LTD., priority 2016, published 2019):

Columns and labels:
Type in all cases: in vivo
[1] = system: transgenic maize plants (ALT-1, ALT-2 and ALT-3); experiment: Tribenuron-methyl tolerance of transgenic maize plants, overall conclusion; conditions: 72 g ai/ha
Experimental: The damage degree caused by the herbicide was measured for each plant according to the plant growth status 3 days after spraying (3 DAT), 7 days after spraying (7 DAT), 14 days after spraying (14 DAT) and 21 days after spraying (21 DAT), respectively: considering a growth status equivalent to that of the untreated plants as having a damage degree of 0%; considering conditions of leaves being partially chlorotic and yellow but substantially not affecting the plant normal growth as having a damage degree of 50%; and considering the whole plant being purple and dying as having a damage degree of 100%. There were 2 strains in Zm cytoplasmic ALT-1-02 maize plants in total (S13 and S14), 2 strains in Zm chloroplastic ALT-1-02 maize plants in total (S15 and S16), 2 strains in Zm cytoplasmic ALT-2-02 maize plants in total (S17 and S18), 2 strains in Zm chloroplastic ALT-2-02 maize plants in total (S19 and S20), 2 strains in Zm cytoplasmic ALT-3-02 maize plants in total (S21 and S22), 2 strains in Zm chloroplastic ALT-3-02 maize plants in total (S23 and S24), and 1 strain in wild-type maize plants (CK2) in total; and 10-15 plants were selected from each strain and tested.

[2] = system: wild-type Arabidopsis thaliana plants; experiment: Herbicide tolerance of Arabidopsis thaliana plants, sprayed, resistance classes counted 14 days after spraying
Source text: (§1) T1 transformants were initially selected from the background of untransformed seeds using a glufosinate selection scheme. About 40000 T1 seeds were screened, and 380 T1 positive transformants (PAT gene) were identified with a transformation efficiency of about 0.95%. The plants that were transformed with the recombinant expression vector DBN100632 were Arabidopsis thaliana plants having an ALT-1-01 nucleotide sequence located in the cytoplasm introduced (At cytoplasmic ALT-1-01), and the plants that were transformed with the recombinant expression vector DBN100631 were Arabidopsis thaliana plants having an ALT-1-01 nucleotide sequence located in the chloroplast introduced (At chloroplastic ALT-1-01); the plants that were transformed with the recombinant expression vector DBN100634 were Arabidopsis thaliana plants having an ALT-2-01 nucleotide sequence located in the cytoplasm introduced (At cytoplasmic ALT-2-01), and the plants that were transformed with the recombinant expression vector DBN100633 were Arabidopsis thaliana plants having an ALT-2-01 nucleotide sequence located in the chloroplast introduced (At chloroplastic ALT-2-01); and the plants that were transformed with the recombinant expression vector DBN100636 were Arabidopsis thaliana plants having an ALT-3-01 nucleotide sequence located in the cytoplasm introduced (At cytoplasmic ALT-3-01), and the plants that were transformed with the recombinant expression vector DBN100635 were Arabidopsis thaliana plants having an ALT-3-01 nucleotide sequence located in the chloroplast introduced (At chloroplastic ALT-3-01).
(§2) Plants were counted for the resistance situations 14 days after spraying: those having a consistent growth status with the blank solvent (water) group after 14 days were classified as highly resistant plants, those having a bolting height less than ½ of that of the blank solvent (water) group after 14 days were classified as moderately resistant plants, those still not capable of bolting after 14 days were classified as poorly resistant plants, and those dead after 14 days were classified as non-resistant plants. Since each Arabidopsis thaliana T1 plant was an independent transformation event, a significant difference in individual T1 responses could be expected at a given dose.
as §2, with “situation” for “situations”

[3] = system: At cytoplasmic ALT-1-01 T1 plants; experiment: Herbicide tolerance of Arabidopsis thaliana T1 plants, sprayed, resistance classes counted 14 days after spraying; conditions: sprayed at 1-fold field concentration
Source text: as §1, §2
as §2, with “situation” for “situations”

[4] = system: At cytoplasmic ALT-2-01 T1 plants; experiment: as above; conditions: sprayed at 1-fold field concentration
Source text: as §1, §2
as §2, with “situation” for “situations”

[5] = system: At chloroplastic ALT-2-01 T1 plants; experiment: as above; conditions: sprayed at 1-fold field concentration
Source text: as §1, §2
as §2, with “situation” for “situations”

[6] = system: At chloroplastic ALT-1-01 T1 plants; experiment: as above; conditions: sprayed at 1-fold field concentration
Source text: as §1, §2
as §2, with “situation” for “situations”

[7] = system: At chloroplastic ALT-3-01 T1 plants; experiment: as above; conditions: sprayed at 1-fold field concentration
Source text: as §1, §2
as §2, with “situation” for “situations”

[8] = system: At cytoplasmic ALT-3-01 T1 plants; experiment: as above; conditions: sprayed at 1-fold field concentration
Source text: as §1, §2
as §2, with “situation” for “situations”

[9] = wild-type, sprayed at 1-fold field concentration, 14 days after spraying

In the case of `COC(=O)c1ccccc1S(=O)(=O)NC(=O)N(C)c1nc(C)nc(OC)n1` [tribenuron-methyl, methyl 2-[N-(4-methoxy-6-methyl-1,3,5-triazin-2-yl)-N-methylaminoformamidosulfonyl]benzoate], the “herbicide tolerance conferred by thifensulfuron hydrolase (in words)” value [1] is reported as “a high level of tribenuron-methyl herbicide tolerance”, the “herbicide tolerance (in words)” value ([2]; wild-type Arabidopsis thaliana plants, 18 g ai/ha) is reported as “none of the wild-type Arabidopsis thaliana plants was tolerant” and the “Highly resistant (number of plants)” value [2, 9] is reported as 0. For the same molecule, the “Moderately resistant (number of plants)” value [2, 9] was 0, the “Non-resistant (number of plants)” value [2, 9] was 32 and the “Poorly resistant (number of plants)” value [2, 9] was 0. For the same molecule, the “Highly resistant (number of plants)” value [3] was 24, the “Moderately resistant (number of plants)” value [3] was 2 and the “Non-resistant (number of plants)” value [3] was 1. The “Poorly resistant (number of plants)” value [3] was 1, the “Highly resistant (number of plants)” value [4] was 25 and the “Moderately resistant (number of plants)” value [4] was 1. The “Non-resistant (number of plants)” value [4] was 3, the “Poorly resistant (number of plants)” value [4] was 1 and the “Highly resistant (number of plants)” value [5] was 29. The “Moderately resistant (number of plants)” value [5] was 0, the “Non-resistant (number of plants)” value [5] was 1 and the “Poorly resistant (number of plants)” value [5] was 1. For the same molecule, the “Highly resistant (number of plants)” value [6] was 28, the “Moderately resistant (number of plants)” value [6] was 0 and the “Non-resistant (number of plants)” value [6] was 2. For the same molecule, the “Poorly resistant (number of plants)” value [6] was 0, the “Highly resistant (number of plants)” value [7] was 27 and the “Moderately resistant (number of plants)” value [7] was 0. For the same molecule, the “Non-resistant (number of plants)” value [7] was 2, the “Poorly resistant (number of plants)” value [7] was 0 and the “Highly resistant (number of plants)” value [8] was 22. For the same molecule, the “Moderately resistant (number of plants)” value [8] was 1, the “Non-resistant (number of plants)” value [8] was 3 and the “Poorly resistant (number of plants)” value [8] was 1.
